Reference: patent US20260138978A1, “POSITIVE ALLOSTERIC MODULATORS OF THE MUSCARINIC ACETYLCHOLINE RECEPTOR M1” (Vanderbilt University, priority 2022, published 2026)

Columns and labels:
human mAChRM1 [1] = molecular target: T1, human mAChRM1 (Homo sapiens, UniProt P11229); test: mAChR M1 cell-based functional assay (calcium mobilization), agonist activity upon compound addition, Emax relative to acetylcholine maximum; details: for EC50 / Agonist Activity Human M1 EC50: calcium mobilization upon compound addition; for Emax: relative to the maximum for acetylcholine
T1 construct: host or cells: CHO-K1
T1 sequence (P11229 1-460): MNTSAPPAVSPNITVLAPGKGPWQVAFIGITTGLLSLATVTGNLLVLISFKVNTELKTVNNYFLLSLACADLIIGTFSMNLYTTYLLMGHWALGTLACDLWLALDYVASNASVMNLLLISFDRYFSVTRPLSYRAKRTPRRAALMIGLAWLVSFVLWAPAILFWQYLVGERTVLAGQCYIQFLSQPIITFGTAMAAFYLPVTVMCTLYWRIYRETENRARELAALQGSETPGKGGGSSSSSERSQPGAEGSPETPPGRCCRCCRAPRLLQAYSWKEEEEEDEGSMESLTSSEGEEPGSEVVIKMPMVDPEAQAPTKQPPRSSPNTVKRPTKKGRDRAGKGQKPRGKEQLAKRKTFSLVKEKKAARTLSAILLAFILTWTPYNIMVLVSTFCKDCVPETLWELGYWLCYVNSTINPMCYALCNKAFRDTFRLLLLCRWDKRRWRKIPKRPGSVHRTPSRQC
Source text: Lack of agonist activity may be measured as weak or no increase in calcium fluorescence in mAChRM1-transfected CHO-K1 cells in the presence of the compound, compared to the response of equivalent CHO-K1 cells in the absence of the compound. Lack of mAChRM1 agonist activity may be determined as a percent response relative to acetylcholine. For example, a disclosed compound may have less than or equal to 30%, 25%, 20%, 15%, 10%, 5%, or 1% mAChRM1 agonist activity relative to acetylcholine. A disclosed compound may have substantially no mAChRM1 agonist activity. […] The absence of mAChRM1 agonist activity may contribute to the avoidance of cholinergic adverse effect liability.
(§1) Chinese hamster ovary (CHO-K1) cells stably expressing rat (r)M1 were purchased from the American Type Culture Collection and cultured according to their indicated protocol. CHO cells stably expressing human (h)M2, hM3, and hM5 were described previously (Levey, et al., 1991); hM1 and hM4 cDNAs were purchased from Missouri S&T cDNA Resource; rM4 cDNA was provided by T. I. Bonner (National Institutes of Health, Bethesda, MD). rM2 and rM3 were cloned from a rat brain cDNA library and sequence verified. hM1, rM2, rM3, hM4, and rM4 cDNAs were used to stably transfect CHO-K1 cells purchased from the American Type Culture Collection using Lipofectamine 2000. To make stable rM2, hM2, rM3, hM4. and rM4 cell lines for use in calcium mobilization assays, these cells also were stably transfected with a chimeric G-protein (Gqi5) (provided by B. R. Conklin, University of California, San Francisco) using Lipofectamine 2000. rM1, hM1, rM3, hM3, rM5, and hM5 cells were grown in Ham's F-12 medium containing 10% heat-inactivated fetal bovine serum (FBS), 20 mM HEPES, and 50 μg/mL G418 sulfate. rM2-Gqi5, hM2-Gqi5, and hM4-Gqi5 cells were grown in the same medium also containing 500 µg/mL Hygromycin B. Stable rM4-Gqi5 cells were grown in DMEM containing 10% heat-inactivated FBS, 20 mM HEPES, 400 μg/mL G418 sulfate, and 500 μg/mL Hygromycin B.
(§2) For high throughput measurement of agonist-evoked increases in intracellular calcium, CHO-K1 cells stably expressing muscarinic receptors were plated in growth medium lacking G418 and hygromycin at 15,000 cells/[…] in Greiner 384-well black-walled, tissue culture (TC)-treated, clear-bottom plates (VWR). Cells were incubated overnight at 37° C. and 5% CO2. The next day, cells were washed using an ELX 405 (BioTek) with four washes (80 μL) of assay buffer then aspirated to 20 μL. Next, 20 μL of 16 μM Fluo-4/acetoxymethyl ester (Invitrogen, Carlsbad, CA) prepared as a 2.3 mM stock in DMSO and mixed in a 1:1 ratio with 10% (w/v) Pluronic F-127 and diluted in assay buffer was added to the wells and the cell plates were incubated for 50 min at 37° C. and 5% CO2. Dye was removed by washing with the ELX 405 (four 80 μL washes of assay buffer) then aspirated to 20 μL. Compound master plates were formatted in an 11 point CR^c format (1:3 dilutions) in 100% DMSO with a starting concentration of 10 mM using the BRAVO liquid handler (Agilent). Test compound CRCs were then transferred to daughter plates (240 nL) using the Echo acoustic plate reformatter (Labcyte, Sunnyvale, CA) and then diluted into assay buffer ([…]) to a 2× stock using a Thermo Fisher Combi (Thermo Fisher Scientific, Waltham, MA).
Calcium flux was measured using the Functional Drug Screening System (FDSS) 6000 (Hamamatsu Corporation, Tokyo, Japan) as an increase in the fluorescent static ratio. Compounds were applied to cells (20 μL, 2×) using the automated system of the FDSS 6000 at 4 s into the 300 s protocol and the data were collected at 1 Hz. […] Agonist activity was analyzed as a concentration-dependent increase in calcium mobilization upon compound addition. Emax values for agonist activity are expressed relative to the maximum for acetylcholine. Positive allosteric modulator activity was analyzed as a concentration-dependent increase in the EC20 acetylcholine response. […]

human mAChRM1 [2] = molecular target: T1, human mAChRM1; test: mAChR M1 cell-based functional assay (calcium mobilization), positive allosteric modulator activity: increase in the EC20 acetylcholine response; details: for Emax: PAM mode; for EC50: increase in the EC20 acetylcholine response, read-out: PAM Activity Human M1 EC50
Source text: as §1, §2
Calcium flux was measured using the Functional Drug Screening System (FDSS) 6000 (Hamamatsu Corporation, Tokyo, Japan) as an increase in the fluorescent static ratio. Compounds were applied to cells (20 μL, 2×) using the automated system of the FDSS 6000 at 4 s into the 300 s protocol and the data were collected at 1 Hz. […] Agonist activity was analyzed as a concentration-dependent increase in calcium mobilization upon compound addition. Emax values for agonist activity are expressed relative to the maximum for acetylcholine. Positive allosteric modulator activity was analyzed as a concentration-dependent increase in the EC20 acetylcholine response. Antagonist activity was analyzed as a concentration-dependent decrease in the EC80 acetylcholine response. Concentration-response curves were generated using a four-parameter logistical equation in XLfit curve fitting software (IDBS, Bridgewater, NJ) for Excel (Microsoft, Redmond, WA) or Prism (GraphPad Software, Inc., San Diego, CA).
Activity (EC50 and Emax) was determined in the mAChRM1 cell-based functional assay as described above and the data are shown in Table 16. The compound numbers correspond to the compound numbers used in Table 15.

EC50 (human mAChRM1 [1]) | Emax (human mAChRM1 [1]) | Emax (human mAChRM1 [2]) | EC50 (human mAChRM1 [2]) | Agonist Activity Human M1 EC50 (human mAChRM1 [1]) | Compound
≥ 10000 nM | 30% | 73% | 180 nM | – | Cn1cc2c(-c3cc(F)c(CN4Cc5ncccc5C4=O)cc3F)ccc(C(C)(C)O)c2n1 [Compound 62, 6-(2,5-difluoro-4-(7-(2-hydroxypropan-2-yl)-2-methyl-2H-indazol-4-yl)benzyl)-6,7-dihydro-5H-pyrrolo[3,4-b]pyridin-5-one]
– | – | 70% | 5940 nM | inactive | Cc1cc(-c2ccc(C(C)(C)O)cc2)ccc1CN1Cc2ncccc2C1=O [Compound 12, 6-((4′-(2-hydroxypropan-2-yl)-3-methyl-[1,1′-biphenyl]-4-yl)methyl)-6,7-dihydro-5H-pyrrolo[3,4-b]pyridin-5-one]
– | – | 58% | 9570 nM | inactive | Cn1nc(-c2cc(F)c(CN3Cc4ncccc4C3=O)c(F)c2)c2ccc(C(C)(C)O)cc21 [Compound 52, 6-(2,6-difluoro-4-(6-(2-hydroxypropan-2-yl)-1-methyl-1H-indazol-3-yl)benzyl)-6,7-dihydro-5H-pyrrolo[3,4-b]pyridin-5-one]
– | – | 53% | 5870 nM | inactive | Cc1cc(-c2ccc(C(C)(C)O)c3ncccc23)cc(F)c1CN1Cc2ncccc2C1=O [Compound 53, 6-(2-fluoro-4-(8-(2-hydroxypropan-2-yl)quinolin-5-yl)-6-methylbenzyl)-6,7-dihydro-5H-pyrrolo[3,4-b]pyridin-5-one]
5220 nM | 47% | 86% | 45 nM | – | Cn1cc2c(-c3cc(F)c(CN4Cc5ncccc5C4=O)c(C4CC4)c3)ccc(C(C)(C)O)c2n1 [Compound 3, 6-(2-cyclopropyl-6-fluoro-4-(7-(2-hydroxypropan-2-yl)-2-methyl-2H-indazol-4-yl)benzyl)-6,7-dihydro-5H-pyrrolo[3,4-b]pyridin-5-one]
2990 nM | 41% | 77% | 81 nM | – | [2H]C([2H])([2H])n1cc2c(-c3cc(C)c(CN4Cc5ncccc5C4=O)c(F)c3)ccc(C(C)(C)O)c2n1 (single isomer, unassigned) [Compound 15, 6-(2-fluoro-4-(7-(2-hydroxypropan-2-yl)-2-(methyl-d3)-2H-indazol-4-yl)-6-methylbenzyl)-6,7-dihydro-5H-pyrrolo[3,4-b]pyridin-5-one]
1860 nM | 27% | 86% | 96 nM | – | [2H]C([2H])([2H])C(C)(O)c1ccc(-c2cc(F)c(CN3Cc4ncccc4C3=O)c(F)c2)c2cn(C)nc12 (stereo not shown) [Compound 95, 6-(2,6-difluoro-4-(7-(2-hydroxypropan-2-yl-1,1,1-d3)-2-methyl-2H-indazol-4-yl)benzyl)-6,7-dihydro-5H-pyrrolo[3,4-b]pyridin-5-one]
6100 nM | 32% | 62% | 147 nM | – | Cn1cc2c(-c3cc(Cl)c(CN4Cc5ncccc5C4=O)c(C4CC4)c3)ccc(C(C)(C)O)c2n1 [Compound 67, 6-(2-chloro-6-cyclopropyl-4-(7-(2-hydroxypropan-2-yl)-2-methyl-2H-indazol-4-yl)benzyl)-6,7-dihydro-5H-pyrrolo[3,4-b]pyridin-5-one]
4610 nM | 18% | 70% | 103 nM | – | Cn1cc2c(-c3cc(F)c(CN4Cc5ncccc5C4=O)c(Cl)c3)ccc(C(C)(C)O)c2n1 [Compound 61, 6-(2-chloro-6-fluoro-4-(7-(2-hydroxypropan-2-yl)-2-methyl-2H-indazol-4-yl)benzyl)-6,7-dihydro-5H-pyrrolo[3,4-b]pyridin-5-one]
7030 nM | 15% | 72% | 254 nM | – | Cn1cc2c(-c3cc(F)c(CN4Cc5ncccc5C4=O)c(F)c3)ccc(C3(O)CCCC3)c2n1 [Compound 91, 6-(2,6-difluoro-4-(7-(1-hydroxycyclopentyl)-2-methyl-2H-indazol-4-yl)benzyl)-6,7-dihydro-5H-pyrrolo[3,4-b]pyridin-5-one]
